Source: patent publication US4575560A, “Insecticidal diaminoguanidine hydrazone compounds” (American Cyanamid Company, priority 1985, dated 1986)

Assays:
[1] = system: Tobacco Budworm 3rd Instar; test: Tobacco budworm secondary test, third-instar larvae on treated cotton cotyledons; type: in vivo, Heliothis virescens (Fabricus)
Southern Armyworm = test: Southern armyworm test, third-instar larvae on treated Sieva lima bean leaves; type: in vivo, Spodoptera eridania (Cramer); details: third-instar larvae
Protocol: Test formulations and procedures used for evaluation are as follows:
A. 100 mg of the test material is weighed, placed in a funnel over a 113 g narrow-mouth bottle, rinsed into the bottle with a 35 mL scoop of acetone, followed by a 35 mL scoop of water and another 35 mL scoop of acetone to yield 1000 ppm in 65% acetone. If the material is not soluble, it is broken up with a glass rod and used as a suspension.
B. This stock solution ("A") is used to make 300 ppm solutions or suspensions by pipetting 30 mL of "A" into a bottle containing 70 mL of 50% acetone to yield 300 ppm. Further dilutions in 50% acetone are made as required.
C. Tests requiring 10 ppm acetone solutions: 1 mL of "A" is pipetted into 99 mL of acetone to yield 10 ppm. Additional dilutions are made using 50% acetone as required.
Southern Armyworm--Spodoptera eridania (Cramer)
A Sieva lima bean plant with just the primary leaves expanded to 1.91 cm is dipped for three seconds with agitation in the "A" solution of 1000 ppm and set in the hood to dry. Following this, one leaf is placed in a 9 cm petri dish which has a moist filter paper in the bottom and 10 third-instar armyworm larvae about 1 cm long. This dish is covered and held at 80° F., and 50% r.h. After two days, mortality counts and estimates of the amount of feeding are made. Compounds showing partial kill and/or inhibition of feeding are held for an extra day for further observations.
All compounds showing activity as defined above are retested, using the second leaf on the bean plant, after an interval of seven days from original treatment, as an assay of residual activity.

SMILES | Mortality Rating Tobacco Budworm 3rd Instar ([1]; 10 ppm) | Mortality Rating Tobacco Budworm 3rd Instar ([1]; 100 ppm) | reduced feeding (R) Tobacco Budworm 3rd Instar ([1]; 100 ppm) | Mortality Rating Tobacco Budworm 3rd Instar ([1]; 1000 ppm) | reduced feeding (R) Tobacco Budworm 3rd Instar ([1]; 1000 ppm) | Mortality Rating Southern Armyworm (Southern Armyworm; 100 ppm) | Mortality Rating Southern Armyworm (Southern Armyworm; 1000 ppm) | Mortality Rating Southern Armyworm (Southern Armyworm; 10 ppm)
N=C(NN=Cc1ccc(Cl)cc1)NN=Cc1ccc(C(F)(F)F)cc1 [CF3 / Cl / B] | 0 (No effect) | 0 (No effect) | R | 4 (46-55%) | R | 9 (100%) | 9 (100%) | 
N=C(NN=Cc1ccc(OC(F)(F)C(F)F)cc1)NN=Cc1ccc(C(F)(F)F)cc1 [CF3 / HCF2 CF2 O / B, 1-{[p-(1,1,2,2-tetrafluoroethoxy)benzylidene]amino}-3-{[p-(trifluoromethyl)benzylidene]amino}guanidine] |  |  |  | 3 (36-45%) |  | 9 (100%) | 9 (100%) | 
N=C(NN=Cc1ccc(OCC(F)(F)F)cc1)NN=Cc1ccc(OCC(F)(F)F)cc1 [CF3 CH2 / S] |  | 0 (No effect) |  | 0 (No effect) | R | 8 (86-99%) | 9 (100%) | 6 (66-75%)
N=C(NN=Cc1ccc(OCC(F)(F)F)cc1)NN=Cc1ccc(OCC(F)(F)F)cc1 [CF3 CH2 O / B] |  | 0 (No effect) |  | 0 (No effect) | R | 0 (No effect) | 4 (46-55%) | 
N=C(NN=Cc1ccc(OC(F)(F)F)cc1)NN=Cc1ccc(OC(F)(F)F)cc1 [CF3 O / B] |  |  |  | 7 (76-85%) |  | 9 (100%) | 9 (100%) | 4 (46-55%)
CC(C)OC(=O)N(N=Cc1ccc(OC(F)(F)F)cc1)C(=N)NN=Cc1ccc(OC(F)(F)F)cc1 [CF3 O / CF3 O / -i-C3 H7] |  | 5 (56-65%) | R |  |  | 9 (100%) | 9 (100%) | 7 (76-85%)
CCN(CC)C(=O)N(N=Cc1ccc(OC(F)(F)F)cc1)C(=N)NN=Cc1ccc(OC(F)(F)F)cc1 [CF3 O / CF3 O / C2 H5 / C2 H5] |  |  |  | 8 (86-99%) |  | 9 (100%) | 9 (100%) | 0 (No effect)
CCOC(=O)N(N=Cc1ccc(OC(F)(F)F)cc1)C(=N)NN=Cc1ccc(OC(F)(F)F)cc1 [CF3 O / CF3 O / C2 H5] |  | 2 (26-35%) |  | 7 (76-85%) | R | 9 (100%) | 9 (100%) | 6 (66-75%)
C=CCOC(=O)N(N=Cc1ccc(OC(F)(F)F)cc1)C(=N)NN=Cc1ccc(OC(F)(F)F)cc1 [CF3 O / CF3 O / CH2CHCH2] |  |  |  | 0 (No effect) | R | 8 (86-99%) | 9 (100%) | 6 (66-75%)
CCOC(=O)N(N=Cc1ccc(Cl)cc1)C(=N)NN=Cc1ccc(Cl)cc1 [Cl / Cl / C2 H5] |  |  |  |  |  | 9 (100%) | 8 (86-99%) | 
N=C(NN=Cc1ccc(Cl)cc1)NN=Cc1ccc(OC(F)(F)C(F)F)cc1 [Cl / HCF2 CF2 O / S] |  |  |  | 0 (No effect) | R |  |  | 
COC(=O)N(N=Cc1ccc(OC(F)(F)C(F)F)cc1)C(=N)NN=Cc1ccc(OC(F)(F)C(F)F)cc1 [HCF2 CF2 O / HCF2 CF2 O / CH3] |  |  |  |  |  | 9 (100%) | 9 (100%) | 
N=C(NN=Cc1ccc(SC(F)(F)C(F)F)cc1)NN=Cc1ccc(SC(F)(F)C(F)F)cc1 [HCF2 CF2 S / S] |  |  |  |  |  |  |  | 6 (66-75%)
